Structures can show the parent of a compound that is named as a salt.

The target of this test is T1, 5-HT3 receptor (Rattus norvegicus, UniProt P35563).
T1 construct: from tissue; host or cells: whole living rat (male Wistar, urethane-anesthetized); endogenous receptor
T1 sequence (P35563 24-483): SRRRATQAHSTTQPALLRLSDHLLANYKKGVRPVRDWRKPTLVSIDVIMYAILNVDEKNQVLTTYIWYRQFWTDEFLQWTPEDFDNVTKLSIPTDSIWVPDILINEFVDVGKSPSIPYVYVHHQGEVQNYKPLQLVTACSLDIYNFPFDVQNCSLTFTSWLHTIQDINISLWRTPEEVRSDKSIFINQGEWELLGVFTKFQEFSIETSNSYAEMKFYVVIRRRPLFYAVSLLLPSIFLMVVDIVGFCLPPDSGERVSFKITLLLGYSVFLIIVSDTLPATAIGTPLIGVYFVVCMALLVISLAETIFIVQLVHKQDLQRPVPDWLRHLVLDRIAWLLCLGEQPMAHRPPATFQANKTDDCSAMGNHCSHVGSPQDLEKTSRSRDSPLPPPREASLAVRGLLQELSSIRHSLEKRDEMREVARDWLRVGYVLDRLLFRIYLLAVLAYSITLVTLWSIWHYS
Nature of the test: Inhibitory effect on the Bezold-Jarish's reflex induced in anesthetized rats with 5-HT (5HT3 receptor antagonistic effect). The class given is in vivo, rat (male Wister strain). The note with it: iv, i.v. test compound, 5-HT 8 μg/kg i.v., urethane-anesthetized male Wister rats, dose giving 50% inhibition, read-out: B-J Reflex Inhibition (ID50). As to the method:
1) 5HT3 Receptor Antagonistic Effect
The antagonistic activity of the compounds of the invention to 5-HT3 receptor was evaluated as to the inhibitory effect on the Bezold-Jarish's reflex induced in anesthetized rats with 5-HT as follows.
Male Wister strain rats (300-400 g weight) were anesthetized by peritoneal injection of urethane (1.25 g/kg) and the heart rate was monitored from an electrocardiograph. Rats were intravenously injected with physiological saline (0.5 ml/kg) and 5-HT (8 μg/kg) solution (0.5 ml/kg) in physiological saline at five minutes interval and the change in the heart rate was recorded (A). Another group of rats were intravenously injected with a test compound and 5-HT solution in the same manner as the above at five minutes interval and the change in the heart rate was recorded (B). The percent inhibition of 5-HT-induced Bezold-Jarish's reflex was calculated as follows.
Inhibition (%)=(1-B/A)×100
In the Table, ID50 is a dose of a compound (I) of the invention which gives a 50% inhibition. The compound number in Table 4 correspond to those in Tables 1-3.
As for `CCn1nc(C(=O)NC2CC3CCC(C2)N3C)c(=O)c2ccccc21` (stereo not drawn) [Compound 76, N-(endo-8-methyl-8-azabicyclo[3.2.1]oct-3yl)-1-ethyl-1,4-dihydro-4-oxocinnoline-3-carboxamide hydrochloride], the ED50 is 0.3 µg/kg. Turning to `CCCn1nc(C(=O)NC2CC3CCC(C2)N3C)c(=O)c2ccccc21` (stereo not drawn) [Compound 86, N-(endo-8-methyl-8-azabicyclo[3.2.1]oct-3-yl)-1-propyl-1,4-dihydro-4-oxocinnoline-3-carboxamide hydrochloride], the ED50 turned out to be 0.15 µg/kg. In the case of `CCCn1nc(C(=O)NC2CC3CCC(C2)N3C)c(=O)c2cccc(F)c21` (stereo not drawn) [Compound 102, 8-Fluoro-N-(endo-8-methyl-8-azabicyclo[3.2.1]oct-3-yl)-1-propyl-1,4-dihydro-4-oxocinnoline-3-carboxamide hydrochloride], the ED50 came out at 0.2 µg/kg.

(Values after US5391549A, “Cinnoline-3-carboxylic acid derivatives” (Mitsubishi Kasei Corporation, priority 1992, dated 1995).)
